We go through 1 molecule from patent publication US20260109690A1, “HDAC6 INHIBITORS AND METHOD OF THEIR USE” (Baerenkraft Therapeutics, LLC., priority 2024, published 2026).

Like-named read-outs stand apart in the source and are kept apart here.

Data set [1] can be described thus: Oral bioavailability and brain/CSF uptake study of compound I-8. Format: in vivo, male Swiss albino mice. On the procedure:
Compound I-8 was evaluated for bioavailability, pharmacokinetics and brain/csf to plasma distribution in mouse plasma following oral and intravenous administration of compound I-8 in male Swiss albino mouse.
A total of 24 male Swiss albino mouse were allotted for the study, Animals were allotted to 2 groups containing 12 mice/group, on day of dosing all the animals were fasted 3 hours before dosing. The test formulation was administered as a single dose by intravenous and oral route via tail vein and oral gavage needle at a dose of 1 and 5 mg/kg with a dose volume of 5 and 10 mL/kg, respectively.
Approximately 0.1 mL of blood sample from each animal was collected via retro orbital at predetermined time points (3 animals/timepoint) in pre-labeled Eppendorf tubes containing anticoagulant. After blood collection at 2 h, 4 h and 6 h, CSF and whole brain was withdrawn, and brain tissue was homogenized as a terminal sampling. Blood samples were centrifuged at 10000 rpm for 5 min under refrigeration (2-4° C.) within 0.5 h to obtain plasma. The separated plasma samples were collected in pre labeled tubes within 60 min of separation and stored at −20° C. up to 24 h. Post 24 h sample collection, all plasma samples were transferred to deep freezer custodian to store below or at −70° C. until shipment.
Brain tissues were blotted and dried and then transferred to 15 mL falcon tubes. Initially all tissue samples were stored at −20±3° C. Later all brain tissue samples were homogenized with PBS at 1:4 ratio and the Brain homogenate was transferred to deep freezer (−70±10° C.) and stored until bioanalysis.
Mouse plasma, CSF and Brain homogenate concentrations were analyzed to quantify compound I-8 using a fit-for purpose LC-MS/MS method with LLOQ of 0.98 ng/mL. The PK parameters were evaluated using Phoenix WinNonlin® Ent-Version 8.3 by non-compartmental analysis.

In data set [2] the target is T1, HDAC10 (Homo sapiens, UniProt Q969S8).
T1 sequence (Q969S8 1-669): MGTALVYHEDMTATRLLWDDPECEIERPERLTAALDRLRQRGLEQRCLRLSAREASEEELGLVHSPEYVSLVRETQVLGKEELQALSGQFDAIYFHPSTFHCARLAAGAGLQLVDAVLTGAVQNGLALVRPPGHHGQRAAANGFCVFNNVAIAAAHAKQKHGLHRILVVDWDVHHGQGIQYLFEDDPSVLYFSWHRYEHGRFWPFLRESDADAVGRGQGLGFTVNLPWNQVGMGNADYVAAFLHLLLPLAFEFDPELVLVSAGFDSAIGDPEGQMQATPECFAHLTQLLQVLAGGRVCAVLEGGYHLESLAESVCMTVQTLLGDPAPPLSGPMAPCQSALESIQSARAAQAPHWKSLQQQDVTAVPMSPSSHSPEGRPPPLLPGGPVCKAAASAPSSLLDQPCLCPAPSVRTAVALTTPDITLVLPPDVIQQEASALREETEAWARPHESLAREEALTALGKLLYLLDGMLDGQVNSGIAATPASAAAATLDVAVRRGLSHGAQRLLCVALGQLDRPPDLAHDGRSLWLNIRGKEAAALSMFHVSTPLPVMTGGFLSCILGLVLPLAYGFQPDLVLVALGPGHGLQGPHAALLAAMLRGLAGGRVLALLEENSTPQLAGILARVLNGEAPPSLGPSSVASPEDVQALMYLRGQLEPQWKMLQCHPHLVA
The experiment in a line: HDAC selectivity panel: HDAC10. Format: biochemical.

Setting [3] is: male, Swiss albino, mouse, plasma, G1, intravenous 1 mg/kg.
[4] abbreviates: male, Swiss albino, mouse, plasma, G2, oral 5 mg/kg.
The mark [5] stands for this setting: male, Swiss albino, G1, intravenous 1 mg/kg, mouse plasma.
Where [6] appears, read: male, Swiss albino, G2, oral 5 mg/kg, mouse plasma.

For `CC1CN(Cc2ccc(Nc3nccc(-c4ccc(C(=O)NO)cc4)n3)cc2F)CCO1` (racemic) [Compound I-8, 4-(2-((3-fluoro-4-((2-methylmorpholino)methyl)phenyl)amino)pyrimidin-4-yl)-N-hydroxybenzamide], the “Steady state and central compartment volume of distribution” value in data set [1] (intravenous 1 mg/kg) is given as “very high”. The clearance in data set [1] (male, Swiss albino, mouse, plasma, iv, 1 mg/kg, G1, intravenous 1 mg/kg) is approximately 328 mL/min/kg. Moreover, in data set [1] (male, Swiss albino, mouse, plasma, iv, 1 mg/kg, G1, intravenous 1 mg/kg, read-out: Vd), the Vd came out at 171 L/kg. For the same molecule, in data set [1] (male, Swiss albino, mouse, plasma, iv, 1 mg/kg, G1, intravenous 1 mg/kg, read-out: Vss), the Vd is 188 L/kg. Further, in data set [1] (setting [3]), the MRT (as a rule, a mean duration of stay, worked out from the concentration-time curve) was 3.28 h and the half-life (as a rule, the time in which the quantity being followed falls by half) is 6.03 h. Moreover, in data set [1] (setting [4]), the MRT was found to be 4.75 h and the Tmax (as a rule, the time from dosing to the highest level) amounted to 8 h. The bioavailability (commonly the share of a dose that reaches the circulation, judged against a reference dose that is usually intravenous) in data set [1] (male, Swiss albino, mouse, plasma, G2, oral 5 mg/kg vs intravenous 1 mg/kg, read-out: % F (oral bioavailability)) stood at 53%. In data set [1] (setting [5]), the AUC(0-inf) (commonly total exposure, with the tail of the curve extrapolated) was found to be 50.8 ng·h/mL; the AUC(0-t) (commonly exposure summed from dosing to a finite time, without extrapolation to infinity) worked out at 27.1 ng·h/mL; the C0 was found to be 27.3 ng/mL. Also, in data set [1] (setting [6]), the AUC(0-t) was determined as 72.3 ng·h/mL and the peak level (Cmax) was 18.3 ng/mL. In data set [1] (oral 5 mg/kg), the “lag phase in absorption” value is “no lag phase in absorption” and the systemic availability result is reported as “moderate to high systemic availability”. For the same molecule, 9.15 nM corresponded to half-maximal inhibition in data set [2] (IC50).
